Measurements published in patent US6537980B1, “Vitamin D analogues and their pharmaceutical use” (Leo Pharmaceutical Products Ltd., priority 1999, dated 2003).
“Also recorded” adds a separate entry of the source.

Legend:
hairless guinea pigs = experiment: Skin irritation, occlusive patch test in hairless guinea pigs; format: in vivo, guinea pig; set-up: key to Skin irritation score: 0: Substances of no irritation; +: Substances of doubtful or very low irritancy compared to calcitriol; ++: Substances of low irritancy compared to calcitriol; +++: Substances with irritances in the same range as calcitriol; ++++: Substances of more irritancy than calcitriol; +++++: Very irritative substances compared to calcftriol; conditions: for Skin irritation score: occlusive patch 48 hours, 500, 50 and 5 μg/ml, clinical grading, LDPI, erythema
Procedure: Skin irritation was assessed in hairless guinea pigs. Randomised occlusive patch testing for 48 hours was used. Each analogue was tested at three dose levels (500 μg/ml, 50 μg/ml, and 5 μg/ml) and a placebo solution was also included. Assessment of skin irritation was blinded and based upon clinical grading and objective measurement of cutaneous blood flow (laser Doppler perfusion imaging, LDPI) and erythema (Minolta ChromaMeter). Furthermore, epidermal thickness as an indication of epidermal hyperplasia was measured.
The irritancy scores were as defined below:
0 Substances of no irritation
+ Substances of doubtful or very low irritancy compared to calcitriol
++ Substances of low irritancy compared to calcitriol
+++ Substances with irritances in the same range as calcitriol
++++ Substances of more irritancy than calcitriol
+++++ Very irritative substances compared to calcftriol

[1] = tested on: HaCaT human skin keratinocyte cell line; experiment: HaCaT antiproliferative assay measuring 3H-thymidine uptake; format: cell-based; conditions: for HaCaT rel.: relative to 1,25(OH)2D3, ratio IC50 of 1,25(OH)2D3 / IC50 of compound, 3H-thymidine incorporation, >1 = more active
Excerpt: An assay for the rating of test compounds for antiproliterative activity in skin cells, e.g. antipsoriatic effect, is the in vitro assay using HaCaT, a spontaneously immortalised, non-tumorigenic human skin keratinocyte cell line (Mørk Hansen, C. et al., J. Invest. Dermatol 1, 44-48 (1996)), measuring ^3H -thymidine uptake.

rats = experiment: Calcemic activity in rats in vivo; set-up: species or system rat; conditions: for Calc. rel.: calcemic activity in rats relative to 1,25(OH)2D3, >1 = more active
Excerpt: Generally, the classical effects of 1,25(OH)2D3 on the calcium balance in the organism, including calcemic and calciuric activities, are unwanted in the vitamin D analogues of the present invention, in which selectivity for e.g. inhibition of the proliferation of certain cells, absence of calcemic effects and skin irritation is desired.

vitamin D receptor = biological target: T1, vitamin D receptor (Homo sapiens, UniProt P11473); experiment: Binding to the vitamin D receptor in vitro, relative to Calcitriol; conditions: relative to 1,25(OH)2D3; ratio IC50 of 1,25(OH)2D3 / IC50 of compound; >1 = more active
T1 sequence (P11473 1-427): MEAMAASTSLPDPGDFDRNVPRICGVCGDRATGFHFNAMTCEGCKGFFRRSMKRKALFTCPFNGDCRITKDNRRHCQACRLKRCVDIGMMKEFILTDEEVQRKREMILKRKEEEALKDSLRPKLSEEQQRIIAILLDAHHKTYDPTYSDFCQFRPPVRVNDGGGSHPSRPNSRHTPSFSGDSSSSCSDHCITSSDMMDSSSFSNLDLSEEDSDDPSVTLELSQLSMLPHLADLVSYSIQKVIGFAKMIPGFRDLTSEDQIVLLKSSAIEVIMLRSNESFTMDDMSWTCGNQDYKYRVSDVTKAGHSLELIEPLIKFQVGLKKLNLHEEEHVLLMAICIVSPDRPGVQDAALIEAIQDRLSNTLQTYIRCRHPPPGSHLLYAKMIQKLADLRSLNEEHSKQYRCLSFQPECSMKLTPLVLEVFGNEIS

Calc. rel. (rats) | Receptor binding rel. (vitamin D receptor) | SMILES | skin irritation (in words) (hairless guinea pigs; compared with prior art compounds) | Skin irritation score (hairless guinea pigs) | antiproliferative activity in skin cells (in words) ([1]; HaCaT, compared with Calcitriol / 1,25(OH)2D3) | HaCaT rel. [1] | calcemic activity (in words) (rats; rats in vivo, compared with prior art compounds)
0.001 | 0.01 | C=C1C(=CC=C2CCCC3(C)C2CCC3C(C)COCc2cccc(C(C)(C)O)c2)CC(O)CC1O [Compound 100, 1(S),3(R)-Dihydroxy-20(R)-[((3-(2-hydroxy-2-propyl)-phenyl)-methoxy)-methyl]-9,10-seco-pregna-5(Z),7(E),10(19)-triene] | considerably less skin irritation than compounds of the prior art | + | same potency as the compound Calcitriol | 1 | very low calcemic activity; also recorded: negligible
0.005 | – | C=C1/C(=C\C=C2/CCC[C@]3(C)[C@@H]([C@H](C)/C=C/[C@@H](O)C4CC4)CC[C@@H]23)C[C@@H](O)C[C@@H]1O [Calcipotriol, reference compound] | – | +++ | – | 2 | –
1 | – | C=C1/C(=C\C=C2/CCC[C@]3(C)[C@@H]([C@H](C)CCCC(C)(C)O)CC[C@@H]23)C[C@@H](O)C[C@@H]1O [Calcitriol, 1α,25-dihydroxy-vitamin D3, reference compound] | – | +++ | – | 1 | –
